Results on four molecules are retold here after publication PMC10314905, “Architecture of a complete Bce-type antimicrobial peptide resistance module” (Nature Communications, 2023).

The target of data set [1] is T1, BceAB-S complex (Bacillus subtilis, UniProt O34697). The arrangement: gene bceA. The note with it: MgCl2, 37 °C, 30 min, detergent solubilized.
In data set [2] the target is T2, BceAB (isolated transporter) (Bacillus subtilis, UniProt O34697).
T2 construct: gene bceA
As to conditions: MgCl2, 37 °C, 30 min, detergent solubilized.

In data set [3] the target is T1, BceAB-S complex. In words: cryo-EM structure of the complex. It is filed as binding. The arrangement: gene bceA; full-length; petDUET-1, E. coli C41(DE3); LMNG-solubilized; BceA:B:S 2:1:2; with Bacitracin export permease protein BceB; Sensor protein BceS. The note with it: 5 mM ATPγS, 5 mM MgCl2, LMNG; bound at Walker A motif and Tyr13 of BceA.
The target of data set [4] is T3, BceAB ABC transporter (BceA2:BceB1) (B. subtilis, UniProt O34697 2-253; O34741 1-646).
T3 construct: BceA of Bacillus subtilis, as m1; BceB of Bacillus subtilis, as m2; The construct for isolated BceAB (without BceS) is not described here; also called BceAB transporter; isolated BceAB; source: E. coli C41(DE3), co-expressed (with or without BceS), purified (LMNG, Co3+-Talon, Superdex 200); not shown: His6, N-terminal, kept; copies: 2 + 1
T3 sequence 1: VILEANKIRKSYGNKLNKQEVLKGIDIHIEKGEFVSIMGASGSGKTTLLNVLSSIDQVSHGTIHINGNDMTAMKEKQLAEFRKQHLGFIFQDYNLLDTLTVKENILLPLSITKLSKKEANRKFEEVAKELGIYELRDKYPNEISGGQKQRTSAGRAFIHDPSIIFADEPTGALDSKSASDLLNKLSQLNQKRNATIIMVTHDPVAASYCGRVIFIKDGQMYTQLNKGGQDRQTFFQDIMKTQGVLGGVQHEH
T3 sequence 2: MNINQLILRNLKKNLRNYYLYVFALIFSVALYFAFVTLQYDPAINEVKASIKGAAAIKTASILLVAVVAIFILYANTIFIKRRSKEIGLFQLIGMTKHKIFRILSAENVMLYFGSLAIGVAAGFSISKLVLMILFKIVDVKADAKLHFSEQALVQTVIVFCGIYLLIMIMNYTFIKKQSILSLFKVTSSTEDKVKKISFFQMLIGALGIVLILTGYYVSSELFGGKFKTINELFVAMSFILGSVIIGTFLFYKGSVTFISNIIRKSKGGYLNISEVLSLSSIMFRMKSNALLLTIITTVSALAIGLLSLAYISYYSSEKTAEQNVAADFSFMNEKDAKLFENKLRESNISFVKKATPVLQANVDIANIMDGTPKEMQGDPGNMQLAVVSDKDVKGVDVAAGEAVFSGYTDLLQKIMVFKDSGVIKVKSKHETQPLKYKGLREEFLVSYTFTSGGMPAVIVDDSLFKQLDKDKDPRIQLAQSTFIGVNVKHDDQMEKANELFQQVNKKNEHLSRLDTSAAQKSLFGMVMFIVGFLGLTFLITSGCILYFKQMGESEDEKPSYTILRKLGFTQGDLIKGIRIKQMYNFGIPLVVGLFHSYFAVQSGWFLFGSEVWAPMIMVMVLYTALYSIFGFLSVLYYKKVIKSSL
Kind of data set: cryo-EM structure; nucleotide-free BceAB-S, co-expressed and co-purified complex in LMNG at ~7 mg/mL; Titan Krios, K3. The note with it: both partners purified.

Data set [5] deals with the molecule itself. The data set is described as above.
Data set [6] deals with the molecule itself. In words: cryo-EM structure; BceAB-S, co-expressed and co-purified complex in LMNG, incubated on ice with 5 mM ATPγS and 5 mM MgCl2 for 30 min before freezing.

T1 sequence (O34697 whole entry, one chain of several): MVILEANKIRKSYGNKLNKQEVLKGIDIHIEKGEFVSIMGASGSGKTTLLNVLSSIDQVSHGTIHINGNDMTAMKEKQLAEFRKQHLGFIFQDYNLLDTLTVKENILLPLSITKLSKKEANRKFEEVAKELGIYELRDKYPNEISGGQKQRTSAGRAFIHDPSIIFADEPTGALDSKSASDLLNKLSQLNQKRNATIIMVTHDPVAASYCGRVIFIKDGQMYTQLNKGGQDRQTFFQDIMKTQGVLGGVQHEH
T2 sequence (O34697 whole entry, one chain of several): as above

As to `Nc1ncnc2c1ncn2[C@@H]1O[C@H](COP(=O)(O)OP(=O)(O)OP(=O)(O)O)[C@@H](O)[C@H]1O` [ATP], the entries for the “colorimetric phosphate-release ATPase assay” value in data set [1] and in data set [2] were “The BceAB-S complex displayed significantly reduced maximal ATPase activity” and “significantly reduced maximal ATPase activity compared to the isolated BceAB transporter”, respectively.
`Nc1ncnc2c1ncn2[C@@H]1O[C@H](COP(=O)(O)OP(=O)(O)OP(O)(O)=S)[C@@H](O)[C@H]1O` [ATPγS]: the “cryo-EM structure of the complex” value in data set [3] was “ATPγS engages the Walker-A motif and Tyr13 in the A-loop of BceA”.

B1: BceS sensor histidine kinase (natural protein, B. subtilis, UniProt O35044 1-334, looked up)
chain: MIKAFLIERRSWIAAFLFQQALMLFIAFVDPSISFGNVLYMVYLCILFFIIFLWFRYRKETAFYKSLKTWENNLDVTAINEPETPFEAMVERSIAGQTEHLKQTAARHRLALENEKDELMAWIHEVKTPLTAMHLIIDRMEEKALKSQLSYEWLRIHLLLDQQLHQKRISFIENDLSVEFIQLQPLIFKEIKDLQSWCIQKGIGFDIQLEAKEVLSDAKWLAFIIRQLLTNAVKYSEASEIEIKSFQKGEQTQLQVKDCGRGIDPKDVPRIFDKGFTSTTDHHDQASTGMGLYLAKKAAAPLLIHIDVESEFGAGTVFTLTFPIRNQFEHVISV
notes: BceS of Bacillus subtilis; gene PCR amplified from B. subtilis genomic DNA; Dimer in the BceAB-S complex; also called BceS kinase; BceS dimer
In the case of B1, the “stoichiometry N” value was 2 BceS per BceAB (BceA2:BceB1) in data set [4] and 2 in data set [5].

B2: BceA, ATPase (nucleotide binding domain) subunit of the ABC transporter BceAB (natural protein, B. subtilis)
chain: T3 sequence 1
notes: BceA of Bacillus subtilis; gene PCR amplified from B. subtilis genomic DNA together with the overlapping bceB gene; Two copies of BceA stand in the BceAB-S complex (BceA:B:S 2:1:2); No cleavage of the His tag is told; also called BceA NBDs; BceA subunits; not shown: His6, N-terminal, kept
In the case of B2, the binding result in data set [6] is “binds”.
